# Measurements: ChEMBL document CHEMBL1151611, “Antimicrobial principles from in vitro tissue culture of Peganum harmala” (J Nat Prod, 1984)
# Active and inactive are the calls of the source. No cut-off for these calls is given here.
# Tests used:
# Assay type in all cases: functional, organism-based
# Staphylococcus aureus = test: Antimicrobial activity against Staphylococcus aureus
# Escherichia coli = test: Antimicrobial activity against Escherichia coli
# Candida albicans = test: Antimicrobial activity against Candida albicans
SMILES,Activity (Staphylococcus aureus),Activity (Escherichia coli),Activity (Candida albicans)
O=c1c(O)c(-c2ccc(O)cc2)oc2cc(O)cc(O)c12,Active,Active,Active
O=c1c(O)c(-c2ccc(O)c(O)c2)oc2cc(O)cc(O)c12,Active,Active,inactive
